# How the values were obtained:
# Assay type in all cases: in vivo
# [1] = system: directly sowed Oryza sativa; experiment: Test Example 3: effect on crop by application to foliage (Wagner pot, water depth 0.1-0.5 cm); conditions: Nineteenth Table; application to foliage; application herbicide amount 320 g/ha
# Outline: (§1)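 Alluvial soil in 1/10000 are Wagner pots, sown and grown 14 days in a 25–30 °C greenhouse. An emulsifiable concentrate diluted in water to the set dose (g/ha) was sprayed on stems and leaves. Effect scored three weeks later on a 0–5 scale: 5 = ≥90% herbicidal ratio, 0 = ≤5%.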
# [2] = system: Leptochloa chinensis; experiment: Test Example 3: herbicidal effect by application to foliage (Wagner pot, water depth 0.1-0.5 cm); conditions: Nineteenth Table; application to foliage; application herbicide amount 320 g/ha
# Outline: as §1
# [3] = system: Cyperus difformis; experiment: as above; conditions: Nineteenth Table; application to foliage; application herbicide amount 320 g/ha
# Outline: as §1
# [4] = system: Echinochloa crus-galli var. crus-galli; experiment: as above; conditions: Nineteenth Table; application to foliage; application herbicide amount 320 g/ha
# Outline: as §1
# [5] = system: Alopecurus myosuroides; experiment: Test Example 4: herbicidal effect by application to foliage (diluvial soil, plastic box); conditions: 320 g/ha; for J (Alopecurus myosuroides) herbicidal effect grade: foliage application
# Outline: (§2)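 Read-out is a 0–5 visual grade of herbicidal ratio (5: ≥90%, almost withered; 0: ≤5%) taken three weeks after treatment. Compound was applied as a diluted emulsion to stem and leaf parts of 14-day greenhouse-grown plants (25° C. to 30° C.) at rates expressed as g/ha.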
# [6] = system: Amaranthus retroflexus; experiment: as above; conditions: 320 g/ha; for N (Amaranthus retroflexus) herbicidal effect grade: foliage application
# Outline: as §2
# [7] = system: Avena fatua; experiment: as above; conditions: 320 g/ha; for I (Avena fatua) herbicidal effect grade: foliage application
# Outline: as §2
# [8] = system: Apera spica-venti.; experiment: as above; conditions: 320 g/ha; for L (Apera spica-venti.) herbicidal effect grade: foliage application
# Outline: as §2
# [9] = system: Setaria viridis; experiment: as above; conditions: 320 g/ha; for G (Setaria viridis) herbicidal effect grade: foliage application
# Outline: as §2
# [10] = system: Lolium multiflorum Lam.; experiment: as above; conditions: 320 g/ha; for K (Lolium multiflorum Lam.) herbicidal effect grade: foliage application
# Outline: as §2
# [11] = system: Stellaria media; experiment: as above; conditions: 320 g/ha; for P (Stellaria media) herbicidal effect grade: foliage application
# Outline: as §2
# [12] = system: Galium spurium; experiment: as above; conditions: 320 g/ha; for Q (Galium spurium) herbicidal effect grade: foliage application
# Outline: as §2
# [13] = system: Echinochloa crus-galli var. crus-galli; experiment: as above; conditions: 320 g/ha; for H (Echinochloa crus-galli var. crus-galli) herbicidal effect grade: foliage application
# Outline: as §2
# [14] = system: Chenopodium album; experiment: as above; conditions: 320 g/ha; for O (Chenopodium album) herbicidal effect grade: foliage application
# Outline: as §2
# [15] = system: Abutilon theophrasti; experiment: as above; conditions: 320 g/ha; for M (Abutilon theophrasti) herbicidal effect grade: foliage application
# Outline: as §2
# [16] = system: Digitaria ciliaris; experiment: as above; conditions: 320 g/ha; for F (Digitaria ciliaris) herbicidal effect grade: foliage application
# Outline: as §2
# [17] = system: Veronica persica; experiment: as above; conditions: application to foliage, 320 g/ha
# Outline: as §2
structure (smiles),measurement,setting,value
CSCCn1nnnc1NC(=O)c1ccc(C(F)(F)F)n2c(C(C)C)nnc12 [2-048],b (effect on crop grade),[1],3 (Herbicidal ratio of 40% or more and less than 70%)
same,D (herbicidal effect grade),[2],5 (Herbicidal ratio of 90% or more (almost completely withered))
same,E (herbicidal effect grade),[3],5 (Herbicidal ratio of 90% or more (almost completely withered))
same,H (herbicidal effect grade),[4],5 (Herbicidal ratio of 90% or more (almost completely withered))
same,J (Alopecurus myosuroides) herbicidal effect grade,[5],3 (Herbicidal ratio of 40% or more and less than 70%)
same,N (Amaranthus retroflexus) herbicidal effect grade,[6],5 (Herbicidal ratio of 90% or more (almost completely withered))
same,I (Avena fatua) herbicidal effect grade,[7],4 (Herbicidal ratio of 70% or more and less than 90%)
same,L (Apera spica-venti.) herbicidal effect grade,[8],4 (Herbicidal ratio of 70% or more and less than 90%)
same,G (Setaria viridis) herbicidal effect grade,[9],5 (Herbicidal ratio of 90% or more (almost completely withered))
same,K (Lolium multiflorum Lam.) herbicidal effect grade,[10],4 (Herbicidal ratio of 70% or more and less than 90%)
same,P (Stellaria media) herbicidal effect grade,[11],4 (Herbicidal ratio of 70% or more and less than 90%)
same,Q (Galium spurium) herbicidal effect grade,[12],4 (Herbicidal ratio of 70% or more and less than 90%)
same,H (Echinochloa crus-galli var. crus-galli) herbicidal effect grade,[13],5 (Herbicidal ratio of 90% or more (almost completely withered))
same,O (Chenopodium album) herbicidal effect grade,[14],5 (Herbicidal ratio of 90% or more (almost completely withered))
same,M (Abutilon theophrasti) herbicidal effect grade,[15],5 (Herbicidal ratio of 90% or more (almost completely withered))
same,F (Digitaria ciliaris) herbicidal effect grade,[16],5 (Herbicidal ratio of 90% or more (almost completely withered))
CSC(C)c1nnc2c(C(=O)Nc3nnnn3C)ccc(C(F)(F)F)n12 (stereo not shown) [2-052],b (effect on crop grade),[1],5 (Herbicidal ratio of 90% or more (almost completely withered))
same,D (herbicidal effect grade),[2],5 (Herbicidal ratio of 90% or more (almost completely withered))
same,E (herbicidal effect grade),[3],5 (Herbicidal ratio of 90% or more (almost completely withered))
same,H (herbicidal effect grade),[4],5 (Herbicidal ratio of 90% or more (almost completely withered))
same,J (Alopecurus myosuroides) herbicidal effect grade,[5],5 (Herbicidal ratio of 90% or more (almost completely withered))
same,N (Amaranthus retroflexus) herbicidal effect grade,[6],5 (Herbicidal ratio of 90% or more (almost completely withered))
same,I (Avena fatua) herbicidal effect grade,[7],5 (Herbicidal ratio of 90% or more (almost completely withered))
same,L (Apera spica-venti.) herbicidal effect grade,[8],5 (Herbicidal ratio of 90% or more (almost completely withered))
same,G (Setaria viridis) herbicidal effect grade,[9],5 (Herbicidal ratio of 90% or more (almost completely withered))
same,K (Lolium multiflorum Lam.) herbicidal effect grade,[10],5 (Herbicidal ratio of 90% or more (almost completely withered))
same,P (Stellaria media) herbicidal effect grade,[11],5 (Herbicidal ratio of 90% or more (almost completely withered))
same,H (Echinochloa crus-galli var. crus-galli) herbicidal effect grade,[13],5 (Herbicidal ratio of 90% or more (almost completely withered))
same,O (Chenopodium album) herbicidal effect grade,[14],5 (Herbicidal ratio of 90% or more (almost completely withered))
same,M (Abutilon theophrasti) herbicidal effect grade,[15],5 (Herbicidal ratio of 90% or more (almost completely withered))
same,F (Digitaria ciliaris) herbicidal effect grade,[16],5 (Herbicidal ratio of 90% or more (almost completely withered))
CC(c1nnc2c(C(=O)Nc3nnnn3C)ccc(C(F)(F)F)n12)[S+](C)[O-] (stereo not shown) [2-053],b (effect on crop grade),[1],5 (Herbicidal ratio of 90% or more (almost completely withered))
same,D (herbicidal effect grade),[2],5 (Herbicidal ratio of 90% or more (almost completely withered))
same,E (herbicidal effect grade),[3],5 (Herbicidal ratio of 90% or more (almost completely withered))
same,H (herbicidal effect grade),[4],5 (Herbicidal ratio of 90% or more (almost completely withered))
same,J (Alopecurus myosuroides) herbicidal effect grade,[5],5 (Herbicidal ratio of 90% or more (almost completely withered))
same,N (Amaranthus retroflexus) herbicidal effect grade,[6],5 (Herbicidal ratio of 90% or more (almost completely withered))
same,I (Avena fatua) herbicidal effect grade,[7],5 (Herbicidal ratio of 90% or more (almost completely withered))
same,L (Apera spica-venti.) herbicidal effect grade,[8],5 (Herbicidal ratio of 90% or more (almost completely withered))
same,G (Setaria viridis) herbicidal effect grade,[9],5 (Herbicidal ratio of 90% or more (almost completely withered))
same,K (Lolium multiflorum Lam.) herbicidal effect grade,[10],4 (Herbicidal ratio of 70% or more and less than 90%)
same,P (Stellaria media) herbicidal effect grade,[11],5 (Herbicidal ratio of 90% or more (almost completely withered))
same,Q (Galium spurium) herbicidal effect grade,[12],5 (Herbicidal ratio of 90% or more (almost completely withered))
same,H (Echinochloa crus-galli var. crus-galli) herbicidal effect grade,[13],5 (Herbicidal ratio of 90% or more (almost completely withered))
same,O (Chenopodium album) herbicidal effect grade,[14],5 (Herbicidal ratio of 90% or more (almost completely withered))
same,M (Abutilon theophrasti) herbicidal effect grade,[15],5 (Herbicidal ratio of 90% or more (almost completely withered))
same,F (Digitaria ciliaris) herbicidal effect grade,[16],5 (Herbicidal ratio of 90% or more (almost completely withered))
CC(c1nnc2c(C(=O)Nc3nnnn3C)ccc(C(F)(F)F)n12)S(C)(=O)=O (stereo not shown) [2-054],b (effect on crop grade),[1],5 (Herbicidal ratio of 90% or more (almost completely withered))
same,D (herbicidal effect grade),[2],5 (Herbicidal ratio of 90% or more (almost completely withered))
same,E (herbicidal effect grade),[3],5 (Herbicidal ratio of 90% or more (almost completely withered))
same,H (herbicidal effect grade),[4],5 (Herbicidal ratio of 90% or more (almost completely withered))
same,J (Alopecurus myosuroides) herbicidal effect grade,[5],4 (Herbicidal ratio of 70% or more and less than 90%)
same,N (Amaranthus retroflexus) herbicidal effect grade,[6],5 (Herbicidal ratio of 90% or more (almost completely withered))
same,I (Avena fatua) herbicidal effect grade,[7],5 (Herbicidal ratio of 90% or more (almost completely withered))
same,L (Apera spica-venti.) herbicidal effect grade,[8],5 (Herbicidal ratio of 90% or more (almost completely withered))
same,G (Setaria viridis) herbicidal effect grade,[9],5 (Herbicidal ratio of 90% or more (almost completely withered))
same,K (Lolium multiflorum Lam.) herbicidal effect grade,[10],5 (Herbicidal ratio of 90% or more (almost completely withered))
same,P (Stellaria media) herbicidal effect grade,[11],5 (Herbicidal ratio of 90% or more (almost completely withered))
same,Q (Galium spurium) herbicidal effect grade,[12],4 (Herbicidal ratio of 70% or more and less than 90%)
same,H (Echinochloa crus-galli var. crus-galli) herbicidal effect grade,[13],5 (Herbicidal ratio of 90% or more (almost completely withered))
same,O (Chenopodium album) herbicidal effect grade,[14],5 (Herbicidal ratio of 90% or more (almost completely withered))
same,M (Abutilon theophrasti) herbicidal effect grade,[15],5 (Herbicidal ratio of 90% or more (almost completely withered))
same,F (Digitaria ciliaris) herbicidal effect grade,[16],5 (Herbicidal ratio of 90% or more (almost completely withered))
Cn1nnnc1NC(=O)c1ccc(C(F)(F)F)n2c(C3(C)CC3(Cl)Cl)nnc12 (stereo not shown) [2-110],b (effect on crop grade),[1],3 (Herbicidal ratio of 40% or more and less than 70%)
same,D (herbicidal effect grade),[2],5 (Herbicidal ratio of 90% or more (almost completely withered))
same,H (herbicidal effect grade),[4],5 (Herbicidal ratio of 90% or more (almost completely withered))
same,"herbicidal effect, J (Alopecurus myosuroides)",[5]; application to foliage,2 (Herbicidal ratio of 20% or more and less than 40%)
same,"herbicidal effect, N (Amaranthus retroflexus)",[6]; application to foliage,5 (Herbicidal ratio of 90% or more (almost completely withered))
same,"herbicidal effect, I (Avena fatua)",[7]; application to foliage,3 (Herbicidal ratio of 40% or more and less than 70%)
same,"herbicidal effect, L (Apera spica-venti.)",[8]; application to foliage,3 (Herbicidal ratio of 40% or more and less than 70%)
same,"herbicidal effect, G (Setaria viridis)",[9]; application to foliage,4 (Herbicidal ratio of 70% or more and less than 90%)
same,"herbicidal effect, K (Lolium multiflorum Lam.)",[10]; application to foliage,3 (Herbicidal ratio of 40% or more and less than 70%)
same,"herbicidal effect, P (Stellaria media)",[11]; application to foliage,5 (Herbicidal ratio of 90% or more (almost completely withered))
same,"herbicidal effect, Q (Galium spurium)",[12]; application to foliage,5 (Herbicidal ratio of 90% or more (almost completely withered))
same,"herbicidal effect, H (Echinochloa crus-galli var. crus-galli)",[13]; application to foliage,5 (Herbicidal ratio of 90% or more (almost completely withered))
same,"herbicidal effect, O (Chenopodium album)",[14]; application to foliage,5 (Herbicidal ratio of 90% or more (almost completely withered))
same,"herbicidal effect, R (Veronica persica)",[17],5 (Herbicidal ratio of 90% or more (almost completely withered))
same,"herbicidal effect, M (Abutilon theophrasti)",[15]; application to foliage,5 (Herbicidal ratio of 90% or more (almost completely withered))
same,"herbicidal effect, F (Digitaria ciliaris)",[16]; application to foliage,5 (Herbicidal ratio of 90% or more (almost completely withered))

# From patent US9708314B2, “Heterocyclic amide compound” (NISSAN CHEMICAL INDUSTRIES, LTD., priority 2013, dated 2017)
